Measured values taken from PMC7385619, “A triple action CDK4/6-PI3K-BET inhibitor with augmented cancer cell cytotoxicity” (Cell Discovery, 2020).

Legend:
Assay in all cases: KINOMEscan assay (Eurofins DiscoverX)
Format in all cases: binding
[1] = biological target: T1, kinome (kinase panel) (Homo sapiens, UniProt Q99640); details: PKMYT1; 1000 nM; read-out: Percent Control
T1 construct: purchased Eurofins DiscoverX

[2] = biological target: T2, kinome (kinase panel) (Homo sapiens, UniProt Q04771); details: ACVR1; 1000 nM; read-out: Percent Control
T2 construct: purchased Eurofins DiscoverX
T2 sequence (Q04771 21-509): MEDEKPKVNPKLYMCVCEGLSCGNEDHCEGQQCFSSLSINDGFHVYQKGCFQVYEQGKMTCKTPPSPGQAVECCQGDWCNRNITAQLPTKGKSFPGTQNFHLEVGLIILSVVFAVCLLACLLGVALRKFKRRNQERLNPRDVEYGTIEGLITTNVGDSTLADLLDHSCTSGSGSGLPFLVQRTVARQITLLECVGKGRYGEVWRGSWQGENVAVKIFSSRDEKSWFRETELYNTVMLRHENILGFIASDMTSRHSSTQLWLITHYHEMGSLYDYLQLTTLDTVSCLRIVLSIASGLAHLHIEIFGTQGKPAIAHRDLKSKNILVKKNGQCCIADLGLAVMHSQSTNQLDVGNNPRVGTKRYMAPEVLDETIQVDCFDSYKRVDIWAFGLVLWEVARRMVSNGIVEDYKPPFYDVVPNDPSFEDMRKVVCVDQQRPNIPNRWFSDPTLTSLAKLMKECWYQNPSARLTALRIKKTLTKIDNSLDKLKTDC

[3] = biological target: T3, kinome (kinase panel) (Homo sapiens, UniProt P57078); details: RIPK4; 1000 nM; read-out: Percent Control
T3 construct: purchased Eurofins DiscoverX

[4] = biological target: T4, kinome (kinase panel) (Homo sapiens, UniProt P08581, M1250T); details: […]; 1000 nM; read-out: Percent Control
T4 construct: purchased Eurofins DiscoverX

[5] = biological target: T5, kinome (kinase panel) (Homo sapiens, UniProt P11309); details: PIM1; 1000 nM; read-out: Percent Control
T5 construct: purchased Eurofins DiscoverX

[6] = biological target: T6, kinome (kinase panel) (Homo sapiens, UniProt Q08345); details: DDR1; 1000 nM; read-out: Percent Control
T6 construct: purchased Eurofins DiscoverX

[7] = biological target: T7, kinome (kinase panel) (Homo sapiens, UniProt Q9H1R3); details: MYLK2; 1000 nM; read-out: Percent Control
T7 construct: purchased Eurofins DiscoverX

[8] = biological target: T8, kinome (kinase panel) (Homo sapiens, UniProt P07949, M918T); details: read-out: Percent Control
T8 construct: purchased Eurofins DiscoverX

[9] = biological target: T9, kinome (kinase panel) (Homo sapiens, UniProt Q56UN5); details: YSK4 (MAP3K19); 1000 nM; read-out: Percent Control
T9 construct: purchased Eurofins DiscoverX

[10] = biological target: T10, kinome (kinase panel) (Homo sapiens, UniProt P00533); details: EGFR; 1000 nM; read-out: Percent Control
T10 construct: purchased Eurofins DiscoverX

[11] = biological target: T11, kinome (kinase panel) (Homo sapiens, UniProt O60285); details: ARK5 (Entrez NUAK1); 1000 nM; read-out: Percent Control
T11 construct: purchased Eurofins DiscoverX
T11 sequence (O60285 whole entry): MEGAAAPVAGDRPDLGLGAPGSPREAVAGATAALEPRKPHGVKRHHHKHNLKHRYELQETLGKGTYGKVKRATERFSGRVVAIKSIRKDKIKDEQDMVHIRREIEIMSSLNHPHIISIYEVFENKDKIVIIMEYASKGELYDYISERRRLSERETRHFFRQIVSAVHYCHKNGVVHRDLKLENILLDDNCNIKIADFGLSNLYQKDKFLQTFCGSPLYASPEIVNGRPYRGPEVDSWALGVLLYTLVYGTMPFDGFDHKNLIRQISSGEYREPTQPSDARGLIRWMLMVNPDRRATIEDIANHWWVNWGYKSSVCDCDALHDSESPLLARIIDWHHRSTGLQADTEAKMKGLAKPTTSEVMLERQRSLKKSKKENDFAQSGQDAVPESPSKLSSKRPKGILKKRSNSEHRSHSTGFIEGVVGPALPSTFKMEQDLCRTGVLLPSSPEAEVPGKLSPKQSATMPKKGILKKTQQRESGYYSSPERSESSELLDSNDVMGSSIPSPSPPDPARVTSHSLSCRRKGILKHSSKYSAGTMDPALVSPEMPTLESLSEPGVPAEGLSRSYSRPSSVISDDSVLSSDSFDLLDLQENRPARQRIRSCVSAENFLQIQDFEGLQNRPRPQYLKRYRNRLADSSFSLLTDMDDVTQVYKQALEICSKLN

[12] = biological target: T12, kinome (kinase panel) (Homo sapiens, UniProt Q32MK0); details: MLCK (Entrez MYLK3); 1000 nM; read-out: Percent Control
T12 construct: purchased Eurofins DiscoverX

[13] = biological target: T13, kinome (kinase panel) (Homo sapiens, UniProt P21802); details: FGFR2; 1000 nM; read-out: Percent Control
T13 construct: purchased Eurofins DiscoverX

[14] = biological target: T14, kinome (kinase panel) (Homo sapiens, UniProt P27361); details: ERK1 (Entrez MAPK3); 1000 nM; read-out: Percent Control
T14 construct: purchased Eurofins DiscoverX

[15] = biological target: T15, kinome (kinase panel) (Homo sapiens, UniProt P49841); details: GSK3B; 1000 nM; read-out: Percent Control
T15 construct: purchased Eurofins DiscoverX

[16] = biological target: T16, kinome (kinase panel) (Homo sapiens, UniProt Q13237); details: PRKG2; 1000 nM; read-out: Percent Control
T16 construct: purchased Eurofins DiscoverX
T16 sequence (Q13237 whole entry): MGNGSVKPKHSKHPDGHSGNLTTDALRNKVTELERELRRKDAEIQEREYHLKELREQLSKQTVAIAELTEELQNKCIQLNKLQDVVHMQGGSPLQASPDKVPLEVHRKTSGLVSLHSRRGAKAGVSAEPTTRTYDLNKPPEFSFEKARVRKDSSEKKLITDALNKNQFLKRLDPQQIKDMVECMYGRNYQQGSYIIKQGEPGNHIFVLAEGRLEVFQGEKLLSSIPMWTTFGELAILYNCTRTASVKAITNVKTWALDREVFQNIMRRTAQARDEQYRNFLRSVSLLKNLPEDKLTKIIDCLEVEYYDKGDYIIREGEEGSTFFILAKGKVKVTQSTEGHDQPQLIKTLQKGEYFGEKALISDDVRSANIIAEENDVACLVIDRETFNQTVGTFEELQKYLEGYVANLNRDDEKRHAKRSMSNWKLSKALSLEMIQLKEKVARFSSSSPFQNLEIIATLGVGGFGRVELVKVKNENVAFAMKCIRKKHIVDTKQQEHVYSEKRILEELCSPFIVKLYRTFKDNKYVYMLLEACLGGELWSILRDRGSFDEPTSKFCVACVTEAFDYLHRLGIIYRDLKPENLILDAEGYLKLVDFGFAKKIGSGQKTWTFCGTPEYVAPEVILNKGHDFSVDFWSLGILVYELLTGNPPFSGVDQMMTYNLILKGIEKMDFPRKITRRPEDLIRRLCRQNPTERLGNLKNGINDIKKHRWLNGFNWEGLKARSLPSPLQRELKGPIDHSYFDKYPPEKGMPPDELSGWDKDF

[17] = biological target: T17, kinome (kinase panel) (Homo sapiens, UniProt Q9UPZ9); details: ICK; 1000 nM; read-out: Percent Control
T17 construct: purchased Eurofins DiscoverX
T17 sequence (Q9UPZ9 whole entry): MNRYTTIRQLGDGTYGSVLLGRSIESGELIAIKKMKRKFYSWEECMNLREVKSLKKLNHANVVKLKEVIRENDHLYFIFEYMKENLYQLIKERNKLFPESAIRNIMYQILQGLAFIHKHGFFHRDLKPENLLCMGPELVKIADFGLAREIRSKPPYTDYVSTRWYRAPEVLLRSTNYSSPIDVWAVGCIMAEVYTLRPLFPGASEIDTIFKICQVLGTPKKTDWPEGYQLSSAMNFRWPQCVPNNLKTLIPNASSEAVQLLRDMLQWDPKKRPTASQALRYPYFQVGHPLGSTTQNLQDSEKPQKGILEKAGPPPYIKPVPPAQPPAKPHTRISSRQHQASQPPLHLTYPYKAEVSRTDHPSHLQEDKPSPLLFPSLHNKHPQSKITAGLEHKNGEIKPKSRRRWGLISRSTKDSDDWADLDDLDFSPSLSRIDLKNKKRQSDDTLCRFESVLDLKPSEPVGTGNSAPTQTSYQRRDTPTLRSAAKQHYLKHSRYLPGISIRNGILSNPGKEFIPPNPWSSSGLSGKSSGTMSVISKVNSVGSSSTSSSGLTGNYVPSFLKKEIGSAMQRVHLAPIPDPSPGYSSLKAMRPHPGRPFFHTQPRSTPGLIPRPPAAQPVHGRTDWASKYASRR

[18] = biological target: T18, kinome (kinase panel) (Homo sapiens, UniProt P48729); details: CSNK1A1; 1000 nM; read-out: Percent Control
T18 construct: purchased Eurofins DiscoverX

[19] = biological target: T19, kinome (kinase panel) (Homo sapiens, UniProt P35626); details: GRK3 (Entrez ADRBK2); 1000 nM; read-out: Percent Control
T19 construct: purchased Eurofins DiscoverX

[20] = biological target: T20, kinome (kinase panel) (Homo sapiens, UniProt Q86YV6); details: MYLK4; 1000 nM; read-out: Percent Control
T20 construct: purchased Eurofins DiscoverX
T20 sequence (Q86YV6 whole entry): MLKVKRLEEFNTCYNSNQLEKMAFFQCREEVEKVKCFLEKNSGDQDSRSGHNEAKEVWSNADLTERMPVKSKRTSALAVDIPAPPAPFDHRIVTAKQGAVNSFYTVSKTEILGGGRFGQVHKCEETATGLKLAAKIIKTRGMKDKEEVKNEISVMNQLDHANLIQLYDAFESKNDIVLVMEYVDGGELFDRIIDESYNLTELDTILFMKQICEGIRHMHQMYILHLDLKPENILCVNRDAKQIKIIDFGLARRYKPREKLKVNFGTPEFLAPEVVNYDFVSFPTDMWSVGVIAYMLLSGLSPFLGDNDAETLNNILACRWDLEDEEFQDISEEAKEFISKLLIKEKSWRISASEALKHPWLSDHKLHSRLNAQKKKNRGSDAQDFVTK

[21] = biological target: T21, kinome (kinase panel) (Homo sapiens, UniProt P42336, E542K); details: read-out: Percent Control
T21 construct: purchased Eurofins DiscoverX

[22] = biological target: T22, kinome (kinase panel) (Homo sapiens, UniProt Q9Y616); details: IRAK3; 1000 nM; read-out: Percent Control
T22 construct: purchased Eurofins DiscoverX

[23] = biological target: T23, kinome (kinase panel) (Homo sapiens, UniProt Q13233); details: MAP3K1; 1000 nM; read-out: Percent Control
T23 construct: purchased Eurofins DiscoverX

[24] = biological target: T24, kinome (kinase panel) (Homo sapiens, UniProt P00519, F317I)
T24 construct: purchased Eurofins DiscoverX
T24 sequence (P00519 whole entry F317I): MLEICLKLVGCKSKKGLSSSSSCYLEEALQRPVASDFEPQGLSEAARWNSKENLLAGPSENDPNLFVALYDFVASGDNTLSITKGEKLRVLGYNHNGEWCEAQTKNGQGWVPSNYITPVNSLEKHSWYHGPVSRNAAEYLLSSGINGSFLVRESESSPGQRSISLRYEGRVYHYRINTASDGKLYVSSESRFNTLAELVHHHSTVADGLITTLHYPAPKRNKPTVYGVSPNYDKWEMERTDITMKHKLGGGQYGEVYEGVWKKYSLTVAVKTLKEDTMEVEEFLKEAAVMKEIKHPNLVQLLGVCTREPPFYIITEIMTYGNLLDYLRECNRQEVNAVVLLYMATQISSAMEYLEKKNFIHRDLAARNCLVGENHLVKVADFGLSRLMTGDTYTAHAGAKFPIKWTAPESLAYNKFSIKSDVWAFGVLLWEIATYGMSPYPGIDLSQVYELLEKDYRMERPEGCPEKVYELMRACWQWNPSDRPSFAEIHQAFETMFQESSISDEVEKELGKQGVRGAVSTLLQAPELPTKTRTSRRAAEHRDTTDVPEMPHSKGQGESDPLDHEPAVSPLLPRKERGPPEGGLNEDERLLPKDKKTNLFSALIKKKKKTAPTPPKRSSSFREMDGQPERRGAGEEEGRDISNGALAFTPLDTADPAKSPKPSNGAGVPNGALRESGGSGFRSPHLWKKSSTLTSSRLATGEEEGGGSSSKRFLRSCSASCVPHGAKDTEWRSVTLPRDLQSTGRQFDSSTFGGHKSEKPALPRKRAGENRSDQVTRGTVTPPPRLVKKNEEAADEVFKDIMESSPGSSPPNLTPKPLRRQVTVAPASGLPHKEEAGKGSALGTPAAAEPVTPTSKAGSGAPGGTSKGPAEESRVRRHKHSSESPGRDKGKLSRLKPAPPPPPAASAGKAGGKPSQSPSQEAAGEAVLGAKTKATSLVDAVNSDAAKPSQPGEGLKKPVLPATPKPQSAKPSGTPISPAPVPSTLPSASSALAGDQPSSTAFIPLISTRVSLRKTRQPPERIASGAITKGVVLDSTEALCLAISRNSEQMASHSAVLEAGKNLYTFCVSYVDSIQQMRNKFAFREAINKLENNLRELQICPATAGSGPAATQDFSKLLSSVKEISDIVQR

[25] = biological target: T25, kinome (kinase panel) (Homo sapiens, UniProt Q92772); details: CDKL2; 1000 nM; read-out: Percent Control
T25 construct: purchased Eurofins DiscoverX
T25 sequence (Q92772 whole entry): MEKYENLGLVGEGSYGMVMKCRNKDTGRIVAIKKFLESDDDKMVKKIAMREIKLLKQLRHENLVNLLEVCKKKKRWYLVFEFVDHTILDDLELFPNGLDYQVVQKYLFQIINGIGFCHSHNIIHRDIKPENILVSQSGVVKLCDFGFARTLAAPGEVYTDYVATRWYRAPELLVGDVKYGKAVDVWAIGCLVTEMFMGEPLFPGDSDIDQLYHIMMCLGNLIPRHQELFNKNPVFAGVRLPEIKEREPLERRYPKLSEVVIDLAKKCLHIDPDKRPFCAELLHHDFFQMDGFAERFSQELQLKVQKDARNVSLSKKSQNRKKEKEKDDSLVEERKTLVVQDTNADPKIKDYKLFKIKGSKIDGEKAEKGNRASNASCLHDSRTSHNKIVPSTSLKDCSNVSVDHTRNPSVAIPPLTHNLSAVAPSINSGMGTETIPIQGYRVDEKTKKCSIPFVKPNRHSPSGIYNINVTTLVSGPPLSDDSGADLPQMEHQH

[26] = biological target: T26, kinome (kinase panel) (Homo sapiens, UniProt P21709); details: EPHA1; 1000 nM; read-out: Percent Control
T26 construct: purchased Eurofins DiscoverX

[27] = biological target: T27, kinome (kinase panel) (Homo sapiens, UniProt Q13153); details: PAK1; 1000 nM; read-out: Percent Control
T27 construct: purchased Eurofins DiscoverX

[28] = biological target: T28, kinome (kinase panel) (Homo sapiens, UniProt Q8TDR2); details: STK35; 1000 nM; read-out: Percent Control
T28 construct: purchased Eurofins DiscoverX

[29] = biological target: T29, kinome (kinase panel) (Homo sapiens, UniProt Q7L7X3); details: TAOK1; 1000 nM; read-out: Percent Control
T29 construct: purchased Eurofins DiscoverX

[30] = biological target: T30, kinome (kinase panel) (Homo sapiens, UniProt Q9NYY3); details: PLK2; 1000 nM; read-out: Percent Control
T30 construct: purchased Eurofins DiscoverX

[31] = biological target: T31, kinome (kinase panel) (Homo sapiens, UniProt P00533, G719C); details: […]; 1000 nM; read-out: Percent Control
T31 construct: purchased Eurofins DiscoverX

[32] = biological target: T32, kinome (kinase panel) (Homo sapiens, UniProt P35968); details: VEGFR2 (KDR); 1000 nM; read-out: Percent Control
T32 construct: purchased Eurofins DiscoverX

[33] = biological target: T33, kinome (kinase panel) (Homo sapiens, UniProt P15735); details: PHKG2; 1000 nM; read-out: Percent Control
T33 construct: purchased Eurofins DiscoverX
T33 sequence (P15735 whole entry): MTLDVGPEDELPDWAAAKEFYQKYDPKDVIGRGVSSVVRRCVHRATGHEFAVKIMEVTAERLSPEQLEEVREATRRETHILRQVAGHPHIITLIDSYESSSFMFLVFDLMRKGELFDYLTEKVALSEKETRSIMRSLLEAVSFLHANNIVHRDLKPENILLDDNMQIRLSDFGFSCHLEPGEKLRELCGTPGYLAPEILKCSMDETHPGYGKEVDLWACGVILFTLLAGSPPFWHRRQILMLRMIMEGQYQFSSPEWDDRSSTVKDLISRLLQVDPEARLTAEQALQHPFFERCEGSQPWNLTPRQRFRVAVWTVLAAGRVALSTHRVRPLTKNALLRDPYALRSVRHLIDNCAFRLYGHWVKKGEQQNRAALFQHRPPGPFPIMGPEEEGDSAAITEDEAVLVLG

## CN(C)C(=O)c1cc2cnc(Nc3ccc(-c4csc5c(=O)cc(N6CCOCC6)oc45)cc3)nc2n1C1CCCC1 [SRX3177]
[1]
  remaining binding at 1 µM: 88%
[2]
  remaining binding at 1 µM: 84%
[3]
  remaining binding at 1 µM: 58%
[4]
  remaining binding at 1 µM: 86%
[5]
  remaining binding at 1 µM: 56%
[6]
  remaining binding at 1 µM: 72%
[7]
  remaining binding at 1 µM: 97%
[8]
  remaining binding at 1 µM: 100%
[9]
  remaining binding at 1 µM: 65%
[10]
  remaining binding at 1 µM: 100%
[11]
  remaining binding at 1 µM: 86%
[12]
  remaining binding at 1 µM: 100%
[13]
  remaining binding at 1 µM: 86%
[14]
  remaining binding at 1 µM: 100%
[15]
  remaining binding at 1 µM: 75%
[16]
  remaining binding at 1 µM: 87%
[17]
  remaining binding at 1 µM: 9.8%
[18]
  remaining binding at 1 µM: 83%
[19]
  remaining binding at 1 µM: 46%
[20]
  remaining binding at 1 µM: 100%
[21]
  remaining binding at 1 µM: 40%
[22]
  remaining binding at 1 µM: 83%
[23]
  remaining binding at 1 µM: 40%
[24]
  Percent Control: 96
[24]; read-out: Percent Control
  remaining binding at 1 µM: 81%
[25]
  remaining binding at 1 µM: 97%
[26]
  remaining binding at 1 µM: 79%
[27]
  remaining binding at 1 µM: 90%
[28]
  remaining binding at 1 µM: 100%
[29]
  remaining binding at 1 µM: 14%
[30]
  remaining binding at 1 µM: 86%
[31]
  remaining binding at 1 µM: 79%
[32]
  remaining binding at 1 µM: 87%
[33]
  remaining binding at 1 µM: 97%
